Legend:
[1] = system: colistin-resistant K. pneumoniae clinical isolates; assay: Disk diffusion antimicrobial susceptibility testing (CLSI); for Interpreted results of disk diffusion: key: R: resistant; I: intermediate; SDD: susceptible-dose dependent; S: sensitive; format: cell-based, Klebsiella pneumoniae; settings: for %Resistance: ten K. pneumoniae isolates, disk diffusion
Method: (§1) Ten non-duplicate clinical isolates of colistin-resistant E. coli (EC) and ten non-duplicate clinical isolates of colistin-resistant K. pneumoniae (KP) were obtained from the bacterial repository of the Division of Infectious Diseases and Tropical Medicine, Department of Medicine, Faculty of Medicine Siriraj Hospital, Mahidol University. The species identification was conducted through standard biochemical tests. Antimicrobial susceptibility testing was carried out using the disk diffusion method following CLSI guidelines. Additionally, the assessment of colistin resistance in all isolates was performed by broth microdilution following CLSI recommendations. […] The amino acid sequences of BP203 and MAP-0403 J-2 were retrieved from previous studies. These peptides are BP100 and MAP-0403 analogs, respectively. […] Antibiotic disks and defibrinated sheep blood were obtained from Oxoid (Basingstoke, UK). All culture media were purchased from Becton Dickinson (Frankin Lakes, NJ, USA). All chemicals were obtained from Sigma-Aldrich (St. Louis, MO, USA).

[2] = system: colistin-resistant E. coli clinical isolates; assay: as above; format: cell-based, Escherichia coli; settings: for %Resistance: ten E. coli isolates, disk diffusion
Method: as §1

C[C@@H](O)[C@H]1C(=O)N2C(C(=O)O)=C(S[C@@H]3CN[C@H](C(=O)Nc4cccc(C(=O)O)c4)C3)[C@H](C)[C@H]12 [ETP, ertapenem]
Interpreted results of disk diffusion ([1]; KP-01): R | Interpreted results of disk diffusion ([1]; KP-02): R | Interpreted results of disk diffusion ([1]; KP-03): R | Interpreted results of disk diffusion ([1]; KP-04): R | Interpreted results of disk diffusion ([1]; KP-05): R | Interpreted results of disk diffusion ([1]; KP-06): R | Interpreted results of disk diffusion ([1]; KP-07): R | Interpreted results of disk diffusion ([1]; KP-08): R | Interpreted results of disk diffusion ([1]; KP-09): R | Interpreted results of disk diffusion ([1]; KP-10): R | %Resistance [1]: 100% | Interpreted results of disk diffusion ([2]; EC-01): S | Interpreted results of disk diffusion ([2]; EC-02): S | Interpreted results of disk diffusion ([2]; EC-03): S | Interpreted results of disk diffusion ([2]; EC-04): S | Interpreted results of disk diffusion ([2]; EC-05): S | Interpreted results of disk diffusion ([2]; EC-06): S | Interpreted results of disk diffusion ([2]; EC-07): S | Interpreted results of disk diffusion ([2]; EC-08): S | Interpreted results of disk diffusion ([2]; EC-09): S | Interpreted results of disk diffusion ([2]; EC-10): S | %Resistance [2]: 0%

NCC[C@H](O)C(=O)N[C@@H]1C[C@H](N)[C@@H](O[C@H]2O[C@H](CN)[C@@H](O)[C@H](O)[C@H]2O)[C@H](O)[C@H]1O[C@H]1O[C@H](CO)[C@@H](O)[C@H](N)[C@H]1O [AK, amikacin]
Interpreted results of disk diffusion ([1]; KP-01): S | Interpreted results of disk diffusion ([1]; KP-02): R | Interpreted results of disk diffusion ([1]; KP-03): R | Interpreted results of disk diffusion ([1]; KP-04): R | Interpreted results of disk diffusion ([1]; KP-05): I | Interpreted results of disk diffusion ([1]; KP-06): R | Interpreted results of disk diffusion ([1]; KP-07): S | Interpreted results of disk diffusion ([1]; KP-08): S | Interpreted results of disk diffusion ([1]; KP-09): S | Interpreted results of disk diffusion ([1]; KP-10): S | %Resistance [1]: 40% | Interpreted results of disk diffusion ([2]; EC-01): S | Interpreted results of disk diffusion ([2]; EC-02): S | Interpreted results of disk diffusion ([2]; EC-03): S | Interpreted results of disk diffusion ([2]; EC-04): S | Interpreted results of disk diffusion ([2]; EC-05): S | Interpreted results of disk diffusion ([2]; EC-06): S | Interpreted results of disk diffusion ([2]; EC-07): S | Interpreted results of disk diffusion ([2]; EC-08): S | Interpreted results of disk diffusion ([2]; EC-09): S | Interpreted results of disk diffusion ([2]; EC-10): S | %Resistance [2]: 0%

CO[C@@]1(NC(=O)Cc2cccs2)C(=O)N2C(C(=O)O)=C(COC(N)=O)CS[C@@H]21 [FOX, cefoxitin]
Interpreted results of disk diffusion ([1]; KP-01): R | Interpreted results of disk diffusion ([1]; KP-02): R | Interpreted results of disk diffusion ([1]; KP-03): R | Interpreted results of disk diffusion ([1]; KP-04): R | Interpreted results of disk diffusion ([1]; KP-05): R | Interpreted results of disk diffusion ([1]; KP-06): R | Interpreted results of disk diffusion ([1]; KP-07): R | Interpreted results of disk diffusion ([1]; KP-08): R | Interpreted results of disk diffusion ([1]; KP-09): R | Interpreted results of disk diffusion ([1]; KP-10): R | %Resistance [1]: 100% | Interpreted results of disk diffusion ([2]; EC-01): S | Interpreted results of disk diffusion ([2]; EC-02): S | Interpreted results of disk diffusion ([2]; EC-03): S | Interpreted results of disk diffusion ([2]; EC-04): I | Interpreted results of disk diffusion ([2]; EC-05): S | Interpreted results of disk diffusion ([2]; EC-06): S | Interpreted results of disk diffusion ([2]; EC-07): S | Interpreted results of disk diffusion ([2]; EC-08): S | Interpreted results of disk diffusion ([2]; EC-09): S | Interpreted results of disk diffusion ([2]; EC-10): S | %Resistance [2]: 0%

C[C@@H]1O[C@@H]1P(=O)(O)O [FOS, fosfomycin]
Interpreted results of disk diffusion ([1]; KP-01): S | Interpreted results of disk diffusion ([1]; KP-02): R | Interpreted results of disk diffusion ([1]; KP-03): I | Interpreted results of disk diffusion ([1]; KP-04): R | Interpreted results of disk diffusion ([1]; KP-05): S | Interpreted results of disk diffusion ([1]; KP-06): R | Interpreted results of disk diffusion ([1]; KP-07): S | Interpreted results of disk diffusion ([1]; KP-08): R | Interpreted results of disk diffusion ([1]; KP-09): R | Interpreted results of disk diffusion ([1]; KP-10): R | %Resistance [1]: 60% | Interpreted results of disk diffusion ([2]; EC-01): S | Interpreted results of disk diffusion ([2]; EC-02): S | Interpreted results of disk diffusion ([2]; EC-03): S | Interpreted results of disk diffusion ([2]; EC-04): R | Interpreted results of disk diffusion ([2]; EC-05): S | Interpreted results of disk diffusion ([2]; EC-06): S | Interpreted results of disk diffusion ([2]; EC-07): S | Interpreted results of disk diffusion ([2]; EC-08): S | Interpreted results of disk diffusion ([2]; EC-09): S | Interpreted results of disk diffusion ([2]; EC-10): S | %Resistance [2]: 10%

CNC(C)C1CCC(N)C(OC2C(N)CC(N)C(OC3OCC(C)(O)C(NC)C3O)C2O)O1 (stereo not shown) [GM, gentamicin]
Interpreted results of disk diffusion ([1]; KP-01): S | Interpreted results of disk diffusion ([1]; KP-02): R | Interpreted results of disk diffusion ([1]; KP-03): S | Interpreted results of disk diffusion ([1]; KP-04): S | Interpreted results of disk diffusion ([1]; KP-05): S | Interpreted results of disk diffusion ([1]; KP-06): S | Interpreted results of disk diffusion ([1]; KP-07): S | Interpreted results of disk diffusion ([1]; KP-08): S | Interpreted results of disk diffusion ([1]; KP-09): S | Interpreted results of disk diffusion ([1]; KP-10): S | %Resistance [1]: 10% | Interpreted results of disk diffusion ([2]; EC-01): R | Interpreted results of disk diffusion ([2]; EC-02): S | Interpreted results of disk diffusion ([2]; EC-03): R | Interpreted results of disk diffusion ([2]; EC-04): R | Interpreted results of disk diffusion ([2]; EC-05): R | Interpreted results of disk diffusion ([2]; EC-06): R | Interpreted results of disk diffusion ([2]; EC-07): S | Interpreted results of disk diffusion ([2]; EC-08): R | Interpreted results of disk diffusion ([2]; EC-09): R | Interpreted results of disk diffusion ([2]; EC-10): R | %Resistance [2]: 80%

CO/N=C(\C(=O)N[C@@H]1C(=O)N2C(C(=O)O)=C(CSc3nc(=O)c(=O)[nH]n3C)CS[C@H]12)c1csc(N)n1 [CRO, ceftriaxone]
Interpreted results of disk diffusion ([1]; KP-01): R | Interpreted results of disk diffusion ([1]; KP-02): R | Interpreted results of disk diffusion ([1]; KP-03): R | Interpreted results of disk diffusion ([1]; KP-04): R | Interpreted results of disk diffusion ([1]; KP-05): R | Interpreted results of disk diffusion ([1]; KP-06): R | Interpreted results of disk diffusion ([1]; KP-07): R | Interpreted results of disk diffusion ([1]; KP-08): R | Interpreted results of disk diffusion ([1]; KP-09): R | Interpreted results of disk diffusion ([1]; KP-10): R | %Resistance [1]: 100% | Interpreted results of disk diffusion ([2]; EC-01): R | Interpreted results of disk diffusion ([2]; EC-02): R | Interpreted results of disk diffusion ([2]; EC-03): R | Interpreted results of disk diffusion ([2]; EC-04): R | Interpreted results of disk diffusion ([2]; EC-05): R | Interpreted results of disk diffusion ([2]; EC-06): R | Interpreted results of disk diffusion ([2]; EC-07): R | Interpreted results of disk diffusion ([2]; EC-08): R | Interpreted results of disk diffusion ([2]; EC-09): R | Interpreted results of disk diffusion ([2]; EC-10): R | %Resistance [2]: 100%

CO/N=C(\C(=O)N[C@@H]1C(=O)N2C(C(=O)[O-])=C(C[N+]3(C)CCCC3)CS[C@H]12)c1csc(N)n1 [FEP, cefepime]
Interpreted results of disk diffusion ([1]; KP-01): R | Interpreted results of disk diffusion ([1]; KP-02): R | Interpreted results of disk diffusion ([1]; KP-03): R | Interpreted results of disk diffusion ([1]; KP-04): R | Interpreted results of disk diffusion ([1]; KP-05): R | Interpreted results of disk diffusion ([1]; KP-06): R | Interpreted results of disk diffusion ([1]; KP-07): R | Interpreted results of disk diffusion ([1]; KP-08): R | Interpreted results of disk diffusion ([1]; KP-09): R | Interpreted results of disk diffusion ([1]; KP-10): R | %Resistance [1]: 100% | Interpreted results of disk diffusion ([2]; EC-01): R | Interpreted results of disk diffusion ([2]; EC-02): R | Interpreted results of disk diffusion ([2]; EC-03): R | Interpreted results of disk diffusion ([2]; EC-04): R | Interpreted results of disk diffusion ([2]; EC-05): SDD | Interpreted results of disk diffusion ([2]; EC-06): S | Interpreted results of disk diffusion ([2]; EC-07): R | Interpreted results of disk diffusion ([2]; EC-08): SDD | Interpreted results of disk diffusion ([2]; EC-09): R | Interpreted results of disk diffusion ([2]; EC-10): R | %Resistance [2]: 70%
